Several values for one entry are separate records, joined by “and”; a condition that tells them apart may be missing. Equal entries are not always repeated. Marks after values point to notes of the source that are not given here.
Test system: human epidermal melanocytes from dark human neonatal foreskin (HEMn-DP)
Test: Quantification of total melanin in cultured melanocytes after 72 hours treatment
Format: cell-based
Conditions: for Mean mg melanin/100K cells: mean of triplicate; for mg melanin/100K cells: single replicate well, normalized to cell number
Description: Monolayer cultures were initiated from cryopreserved cultures of human epidermal melanocytes from dark human neonatal foreskin (HEMn-DP; C-202-5C; Cascade Biologics™), according to the manufacturer's instructions. Cells were cultured in Medium 254 (M-254-500, Cascade Biologics) supplemented with Human Melanocyte Growth Supplement (HMGS; S-0002-5, Cascade Biologics). Stocks of these cultures were generated and stored in Sythn-a-Freeze® cryopreservation media (R-005-50. Cascade Biologics) in liquid nitrogen at passage 2.
For use in assays, cells were thawed according to manufacturer's instructions, and subcultured to increase cell numbers as required. Cells were then plated into 6-well plates at ˜200,000 cells per well and incubated at 37° C., 5% CO2, and were used in assays at passage 4.
Once the melanocytes had adhered to the 6-well plate's (approx. 4-6 hr.), the medium was replaced with Medium 254 containing Human Melanocyte Growth Supplement PMA-free (HMGS-2; S-016-5 hereafter termed depleted media) for approximately 16 hours, or overnight, prior to treatment with the actives.
To develop the screening assay a variety of cell concentrations and incubation times were tested to obtain optimized measurable levels of melanin. During this process no materials were applied to the cells. In addition a standard melanin (M8631, Sigma Aldrich) stock solution was prepared in Solvable™ reagent (5NE9100, Perkin Elmer) to obtain a standard curve for evaluating levels of melanin extracted from cells using a spectrophotometer. Method development was performed to obtain the optimum time required to solubilize the melanin into solution without degradation and a reduction in color.
All stocks of active materials were diluted in DMSO, ethanol or media, before further dilution in depleted media. Treatments were applied to the cells in 6-well plates in triplicate for 72 hours after which time the cells were harvested. Appropriate solvent controls in triplicate were incorporated into each assay.
After 72 hours, media was removed form the cells and the cells were washed once in Dulbecco's PBS. The PBS wash was removed and discarded and care being taken to ensure that all excess PBS was removed as far as possible. 1 mL trypsin-EDTA solution (R-001-100, Cascade Biologicsm) was added and cells incubated at room temperature for ˜1 minute. Microscopic observation was carried out to ensure all cells had detached from the plate. The resulting cell suspension was transferred to a 1.5 mL Eppendorf tube, 50 μL was removed for a cell count (Beckman coulter counter), and the remaining suspension was centrifuged at 13,000 rpm for 5 minutes. The supernatant was discarded and the cell pellets were frozen at −20° C.
The cell pellets were thawed at room temperature, and each pellet was re-suspended in 75 μL Solvable™ reagent (6NE9100, Perkin Elmer). Each tube was vortexed briefly, before incubating in a water bath at 60° C. for 1 hour. After the 1 hour incubation, each tube was vortexed and then centrifuged at 13,000 rpm for 15 minutes. The supernatant containing the extracted melanin was transferred to a 96 well plate and the absorbance at 490 nm recorded on a Dynex MRX-II plate reader.
Each ingredient was tested in triplicate and compared against the relevant vehicle control. The total amount of melanin extracted was calculated from a melanin standard curve. All resultant data was normalized to the total number of the cells in the sample. Data was subjected to the F-test for variance, followed by Student's t-test (assuming equal or unequal variance depending on results of the F-test.

Structure (SMILES): COc1ccc2c3c1O[C@H]1C[C@@H](O)C=C[C@@]31CCN(C)C2 [Galanthamine, galanthamine]
- Mean mg melanin/100K cells (0.1 μM): 24.0^e mg melanin/100K cells
- mg melanin/100K cells (0.1 μM): 21.2 mg melanin/100K cells and 26.7 mg melanin/100K cells and 23.9 mg melanin/100K cells
- Mean mg melanin/100K cells (1 μM): 19.4^d mg melanin/100K cells
- mg melanin/100K cells (1 μM): 21.0 mg melanin/100K cells and 18.6 mg melanin/100K cells and 18.5 mg melanin/100K cells
- Mean mg melanin/100K cells (10 μM): 23.4^c mg melanin/100K cells
- mg melanin/100K cells (10 μM): 23.3 mg melanin/100K cells and 23.7 mg melanin/100K cells and 23.0 mg melanin/100K cells

Source: patent US20100143277A1, “Skin Lightening Compositions with Acetylcholinesterase Inhibitors” (priority 2008, published 2010)
